Laboratory results published in patent US7371766B2, “Curcumin analogs with anti-tumor and anti-angiogenic properties” (Emory University, priority 1999, dated 2008).
Where two headings read alike, the source gives them in different places.

Experiments:
[1] = test system: Vascular Endothelial Growth Factor (VEGF) production by human melanoma cell line RPMI-7951; assay: VEGF ELISA, RPMI-7951; conditions: for activity at 20 µM / activity at 5 µM: Homo sapiens, RPMI-7951, 72 h, read-out: VEGF; for VEGF ELISA / VEGF: RPMI-7951; for VEGF ELISA: DMSO control 3713
Method: (§1) RPMI-795 1, MDA-MB-231 and MDA-MB-435 cell lines were cultured in MEM-alpha medium (GIBCO-BRL, Long Island, N.Y.) containing 10% fetal bovine serum (RPMI-7951, MDA-MB-231) or 5% FBS (MDA-MB-435) at 37° C. and under 5% CO2/95% air. […] The cells were cultured in 48 well plates in all of the experiments described.
A VEGF enzyme-linked immunosorbent assay (ELISA) was utilized to determine the effect of the compounds of the present invention on VEGF production of a variety of human cancer cell lines. For the VEGF assay, cells were plated at a concentration of 80,000 cells/well and cultured overnight. Compounds or vehicle (DMSO 0.1%) were then added and the plates were incubated for 72 hours. Supernatant was then collected from each well and frozen in a −80° C. freezer until needed. Cell viability was determined by Neutral Red Assay. VEGF ELISA Kit (R & D, Minneapolis, Minn.) was used to determine the amount of VEGF in the culture supernatants. The ELISA was carried out according to the manufacturer's procedure.

RPMI-7951 human melanoma = assay: Neutral Red Assay, cell viability, RPMI-7951; conditions: for viability at 20 µM / viability at 5 µM: Homo sapiens; for Cell Viability: RPMI-7951, DMSO = 100
Method: as §1
Neutral Red Assay was utilized to determine the effect of the compounds of the present invention on cell viability. Neutral Red was purchased from GIBCO-BRL (Long Island, N.Y.). Cells were plated at a concentration of 20,000 cells/well and cultured overnight. Compounds or vehicle (DMSO 0.1%) were then added and the plates were incubated for 72 hours. Supernatant from each well was either aspirated or collected and media containing Neutral Red (GIBCO-BRL, Long Island, N.Y.) at a concentration of 15 μl/ml was then added to each well. The plates were then incubated at 37° C. for 30 minutes. Next, the cells were washed with twice with PBS and alcoholic-HCl (0.5N—HCl/35% ethanol) was added to each well. The plates were then placed on a plate shaker until all residues were solubilized (pink color). The solubilized mixtures were then transferred to a 96 well plate and the absorbances were read on a micro-test plate reader at a wavelength of 570 nm.
Cell viability was determined by Neutral Red Assay.

[2] = test system: Tissue Factor (TF) production by human melanoma cell line RPMI-7951; assay: TF ELISA, RPMI-7951; type: cell-based
Method: IMUBIND Tissue Factor ELISA Kit (American Diagnostica Inc, Greenwich, Conn.) was used to determine TF concentration in each sample. The ELISA was carried out according to manufacturer's procedure.

[3] = test system: Vascular Endothelial Growth Factor (VEGF) production by human prostate cancer cell line DU-145; assay: VEGF ELISA, DU-145; type: cell-based; conditions: for VEGF (% of DMSO): DMSO = 100%
[4] = test system: Vascular Endothelial Growth Factor (VEGF) production by human prostate cancer cell line PC-3; assay: VEGF ELISA, PC-3; type: cell-based; conditions: for VEGF (% of DMSO): DMSO = 100%
[5] = RPMI-7951, 72 h, read-out: Neutral Red Uptake, %
[6] = RPMI-7951, read-out: Cell Viability
[7] = Table 5, 20 μM, DMSO control 7054
[8] = 5 μM, DMSO control 4197 (EF-25: 1045)
[9] = 20 μM, mean of triplicate and S.D., DMSO 18760 ± 2633
[10] = Table 4, 20 μM, mean of triplicate and S.D.
[11] = 20 μM, mean of triplicate and S.D., DMSO 2103 ± 100

SMILES | activity at 20 µM [1] | VEGF ELISA ([1]; 20 μM) | VEGF ([1]; 20 μM, DMSO control 4197) | viability at 20 µM (RPMI-7951 human melanoma; [5]) | viability at 20 µM (RPMI-7951 human melanoma; [6]) | TF ([2]; 20 μM, DMSO = 100) | TF [2, 7] | VEGF [1, 8] | VEGF ([3]; Table 4, 20 μM, DMSO = 100) | VEGF [3, 10] | VEGF ([4]; Table 4, 20 μM, DMSO = 100) | VEGF [4, 10] | VEGF ([1]; 20 μM, DMSO = 100) | Cell Viability (RPMI-7951 human melanoma; 20 μM) | further results
O=C(C=Cc1ccc(F)c(F)c1)C=Cc1ccc(F)c(F)c1 [EF10, 1,5-Bis(3,4-difluorophenyl)penta-1,4-dien-3-one] | 5% | 257 pg/ml/well | 217 pg/mL | 8% | 54% |  |  |  |  |  |  |  |  |  | 
CON=C(/C=C/c1ccccc1O)/C=C/c1ccccc1O [EF6, N-(Methoxy)-1,5-bis(2-hydroxyphenyl)penta-1,4-dien-3-imine] | 45% |  |  |  | 72% |  |  |  |  |  |  |  |  |  | 
COc1ccc(CCC(=O)CCc2ccc(OC)cc2)cc1 [BA-1] |  |  |  |  |  | 95% | 6669 pg/mL |  |  |  |  |  |  |  | 
O=C(C=Cc1ccccc1F)C=Cc1ccccc1F [EF8, 1,5-Bis(2-fluorophenyl)penta-1,4-dien-3-one] | 1% | 319 pg/ml/well | 35 pg/mL | 8% | 54% |  |  | 2276 pg/mL |  |  |  |  |  |  | activity at 5 µM [1]: 54%; VEGF ELISA ([1]; 5 μM): 2208 pg/ml/well; viability at 5 µM (RPMI-7951 human melanoma; [5]): 97%; viability at 5 µM (RPMI-7951 human melanoma; [6]): 94%
O=C(NCc1ccccc1)NCc1ccccc1 [Compound A271a] |  |  |  |  |  |  |  |  | 129% | 24190 ± 2160 pg/mL | 57% | 1196 ± 438 pg/mL |  |  | VEGF (% of DMSO) ([3]; 20 μM): (129%); VEGF [3, 9]: 24190 ± 2160 pg/mL; VEGF (% of DMSO) ([4]; 20 μM): (57%); VEGF [4, 11]: 1196 ± 438 pg/mL
O=C1CCC(N2C(=O)c3ccccc3C2=O)C(=O)N1 (stereo not drawn) [Thalidomide, reference compound] | 57% | 2827 pg/ml/well | 2387 pg/mL | 100% | 97% |  |  | 1865 pg/mL |  |  |  |  |  |  | activity at 5 µM [1]: 44%; VEGF ELISA ([1]; 5 μM): 1810 pg/ml/well; viability at 5 µM (RPMI-7951 human melanoma; [5]): 100%; viability at 5 µM (RPMI-7951 human melanoma; [6]): 105%
COc1cc(CC2CCCC(Cc3ccc(O)c(OC)c3)C2=O)ccc1O (stereo not drawn) [Compound A231U] |  |  |  |  |  | 85% | 5981 pg/mL |  | 149% | 27875 ± 4446 pg/mL | 47% | 984 ± 349 pg/mL | 34% | 80% | TF ([2]; 5 μM, DMSO = 100): 78%; TF ([2]; Table 5, 5 μM, DMSO control 7054): 5473 pg/mL; VEGF (% of DMSO) ([3]; 20 μM): (149%); VEGF [3, 9]: 27875 ± 4446 pg/mL; VEGF (% of DMSO) ([4]; 20 μM): (47%); VEGF [4, 11]: 984 ± 349 pg/mL
Oc1ccccc1CCC(O)CCc1ccccc1O [EF32, 1,5-Bis(2-hydroxyphenyl)-pentan-3-ol] |  |  |  |  |  | 123% | 8654 pg/mL |  |  |  |  |  |  |  | 
[O-][S+](/C=C/c1ccccc1)/C=C/c1ccccc1 [EF13, E,E-3,5-Bisbenzylidenesulfoxide] |  |  |  |  |  |  |  |  |  |  |  |  | 53% | 92% | 
COc1ccc(CCC(=O)CCc2ccc(OC)c(OC)c2)cc1OC [A] |  |  |  |  |  |  |  |  | 142% | 26565 ± 9818 pg/mL | 82% | 1729 ± 59 pg/mL |  |  | VEGF (% of DMSO) ([3]; 20 μM): (142%); VEGF [3, 9]: 26565 ± 9818 pg/mL; VEGF (% of DMSO) ([4]; 20 μM): (82%); VEGF [4, 11]: 1729 ± 59 pg/mL
CN(C)/N=N/c1[nH]cnc1C(N)=O [Decabazine, Decarbazine, reference compound] | 31% | 1531 pg/ml/well | 1293 pg/mL | 100% | 99% |  |  | 1171 pg/mL |  |  |  |  |  |  | activity at 5 µM [1]: 28%; VEGF ELISA ([1]; 5 μM): 1136 pg/ml/well; viability at 5 µM (RPMI-7951 human melanoma; [5]): 100%; viability at 5 µM (RPMI-7951 human melanoma; [6]): 91%
COc1ccc(C=CC(=O)c2ccccc2)cc1OC [BA-3] |  |  | 2035 pg/mL |  |  | 30% | 2088 pg/mL | 4860 pg/mL |  |  |  |  | 48% | 102% | VEGF ([1]; 5 μM, DMSO = 100): 116%; Cell Viability (RPMI-7951 human melanoma; 5 μM): 93%
COc1ccc(C=CC(O)CCc2ccc(OC)c(OC)c2)cc1OC (stereo not drawn) [Compound A239] |  |  |  |  |  |  |  |  | 145% | 27229 ± 2148 pg/mL | 80% | 1678 ± 293 pg/mL | 40% | 86% | 
